Consider four compounds from US10583123B2, “Method for the treatment of ATG4-related disorders” (National Tsing Hua University, priority 2017, dated 2020).

For data set [1], the system named is HCT116 cells. Description: Caspase-3 activation (Caspase-Glo 3/7, immunoblotting of caspase-3 and PARP). Format: cell-based, human. Particulars: for caspase-3/7 activity and cleavage of caspase-3 and PARP: cells exposed to Dox (1 μM) alone or co-treated with tioconazole (40 μM).
Description: The cell lysates were used for immunoblotting with antibodies against the primary antibodies against ATG4B (A2981), LC3 (L7543), and ACTB (β-actin, A5441) (all purchased from Sigma-Aldrich). […] The membrane was scanned and analyzed for the protein expression level with the ChemiDoc XRS Imaging System (Bio-Rad).
For data set [2], the target named is T1, ATG4B (Homo sapiens, UniProt Q9Y4P1).
T1 sequence (Q9Y4P1 1-393): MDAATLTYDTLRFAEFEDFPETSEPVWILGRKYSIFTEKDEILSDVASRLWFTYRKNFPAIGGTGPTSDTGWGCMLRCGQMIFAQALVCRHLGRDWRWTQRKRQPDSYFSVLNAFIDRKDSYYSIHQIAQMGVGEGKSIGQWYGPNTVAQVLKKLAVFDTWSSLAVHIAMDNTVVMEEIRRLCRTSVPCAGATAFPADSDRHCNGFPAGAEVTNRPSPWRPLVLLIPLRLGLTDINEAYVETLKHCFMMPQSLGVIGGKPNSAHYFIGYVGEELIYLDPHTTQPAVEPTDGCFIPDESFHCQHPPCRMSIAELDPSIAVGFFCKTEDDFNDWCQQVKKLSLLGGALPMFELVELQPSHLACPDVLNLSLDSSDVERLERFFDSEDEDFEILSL
Description: LC3-PLA2 biochemical ATG4 reporter assay. Conditions: FIG. 2 and 4. The text has this: (§1) Quantitative results are shown in each panel (n=4). […] Bar: 100 μm.

In data set [3] the test system is HCT116 cells. Description: FACS cell cycle distribution, subG1 population. Conditions: Dox 1 μM, 24 h.
Data set [4] deals with T1, ATG4B. Description: ATG4B reporter yeast cell-based assay. Particulars: ATG4 reporter yeast cells, FIG. 2. As for the experimental part:
as §1
FIGS. 55-58 show the characterization of yeast based ATG4B reporter assay for hts. (FIG. 55) Two-fold serial titrated yeast that harbored the LC3 reporter with wild type ATG4B (WT) or catalytic mutant (C74A) expression vector and reporter vector were seeded into a 384-well plate for 24 or 48 h. The substrate of […] X-gal (80 μg/ml) was included in the SD medium for the colorimetric assay. (FIG. 56) Beta-Glo was added into each well as (A) at 24 or 48 h to optimize the yeast concentration for the luminescent substrate. (FIG. 57) Yeast that harbored the wild type (WT) ATG4B and catalytic mutant (C74A) were used to determine the ratio of signal (WT)/background (C74A) and compare the sensitivity between the colorimetric and luminescent substrates. (FIG. 58) […] of yeast reporter cells (1.5×10^4 cells/ml) as previously described were seeded into a 384-well white plate for 24 h. Ten μl of the luminescent substrate Beta-Glo was added to each well, and the luminescent signal was read to determine the ATG4B activity. The luminescent signal between the wild type (WT) ATG4B and catalytic mutant (C/A) was used to determine the assay robustness (Z′ factor: 0.78).

In data set [5] the test system is H4, HCT116 and MDA-MB-231 cells. Nature of the data set: Cell viability assay (CellTiter-Glo, cellular impedance). The format is cell-based, human. Background: Cellular ATP, detected with luciferase, serves as a proxy for viable cell number.
Description: Cells were seeded into a 384-well plate overnight and treated with various drugs for 24 h. CellTiter-Glo (Promega, Madison, Wis., USA) was subsequently added to the treated cells, and the luminescence was read using a Fluoroskan Ascent FL reader (Thermo Fisher Scientific). Alternatively, the cell viability was monitored with an impedance-based instrument system (iCELLigence, ACEA Biosciences) for live cells. Briefly, H4 cells, HCT116 cells and MDA-MB-23 cells (4×10^4 cells/well) were seeded into electronic plates (E-Plates L8, ACEA Biosciences) with 400 μl of DMEM that contained 10% FBS and incubated for 30 h. […] The cellular impedance was periodically measured every 15 minutes until 80 h.
The cell viability was accessed with CellTiter-Glo.
The target of data set [6] is T1, ATG4B. Particulars: ATG4B 1 nM, 500 nM GABARAPL2-PLA2, 1 h, anti-Myc.
Description: (§2) The fluorescence intensity was kinetically monitored for 1 h to determine the ATG4 activity at room temperature with excitation and emission wavelengths of 485 and 530 nm, respectively.
(§3) For cleavage of GABARAPL2-PLA2 and caspase-3 activation, reaction mixtures or cell lysates were immunoblotted with antibodies against Myc (Roche, 11667149001), caspase-3 (Cell Signaling, 9661), PARP (Cell Signaling, 9532) and GAPDH (Cell Signaling, 5174).
(§4) (FIG. 5) ATG4B (1 nM) or (FIG. 6) ATG4A (50 nM) was mixed with 10-fold serially diluted Tc and 500 nM GABARAPL2-PLA2 for 1 h. The cleavage of GABARAPL2-PLA2 was validated with immunoblotting using an anti-Myc antibody.
Data set [7] concerns the target T2, ATG4A (Homo sapiens, UniProt Q8WYN0). Conditions: ATG4A 50 nM, 500 nM GABARAPL2-PLA2, 1 h, anti-Myc.
Description: as §2, §3, §4
The target in data set [8] is ATG4 (Homo sapiens, UniProt Q9Y4P1). Conditions: HEK293T cells, FIG. 8.
Description: For the ATG4 cleavable reporter assay in mammalian cells, the N-terminus (NLuc, residues 2-416) and C-terminus (CLuc, residues 398-550) of the luciferase gene were constructed in the expression vector pcDNA3.0. […] The luciferase activity was measured via One-Glo (Promega) according to the instruction manual. The non-cleavable mutant G120A was used to normalize the luminescent signal and determine the ATG4 activity.
Quantitative results are shown in each panel (n=4). […] (FIG. 7) The expression vector that encoded ATG4-cleavable luciferase was constructed with LC3 and a luciferase chimera gene, as shown in the schematic diagram (upper panel). HEK293T cells were transfected with scramble siRNA (siCtrl) or siRNA against ATG4B (siATG4B) for 48 h, followed by transfection with the ATG4 reporter vector for 24 h. The luciferase activity was measured with a luminescent reader (n=6), and the knockdown efficiency of ATG4B was determined using immunoblotting. […] The cleavage of LC3 and luciferase chimera protein by ATG4 in cells treated with Tc or untreated cells was verified via immunoblotting (upper panel).
Briefly, LC3 was constructed to split N-terminal and C-terminal luciferase in a mammalian expression vector, as indicated (FIG. 7).
Data set [9] addresses ATG4B and LC3 complex (Homo sapiens, UniProt Q9Y4P1). Particulars: HEK293T cells, flow cytometry. In general terms: Flow cytometry measures light scatter and fluorescence of single cells or particles in a stream.
Description: The plasmids (1 μg/well) were transfected with lipofectamine 2000 transfection reagent (Life Technologies, 11668-027) into HEK293T cells in a 6-well plate for 24 h. The cells were imaged via fluorescence microscopy or harvested to quantify the fluorescence intensity via a flow cytometer (Becton Dickinson).
After overnight culture, the cells were fixed to observe Venus complementary under fluorescence microscopy (right panel). […] (FIG. 10) The transfected cells were treated with Tc for 8 h and fixed for flow cytometry to quantify Venus fluorescence using GFP as a counter assay.
The cells were fixed to determine Venus complementation with flow cytometry and quantitated with FlowJo. HEK 293T cells transfected with or without GFP expression vector were used as the blank and counter controls, respectively.
Data set [10] relates to H4 cells that stably express GFP-LC3. Conditions: tioconazole 8 h.
Description: The treated cells were fixed to observe the GFP-LC3 puncta via fluorescence microscopy. For protein colocalization, the H4 stable cells previously described were transfected with 1 μg plasmids Cherry tagged ATG4B or Lamp1-RFP (Addgene, 1817) for 36 h using Lipofectamine 2000 (Invitrogen).
(FIG. 17) Human glioma H4 cells that stably express GFP-LC3 were transfected with 5 nM non-targeting siRNA (Ctrl) or siRNA against ATG4 family members (ATG4) for 48 h, and the knockdown efficiency of ATG4 was verified with real time PCR. (FIG. 18) The knockdowned cells were fixed for observation via fluorescence microscopy, and the number of GFP-LC3 puncta is quantified in the right panel. […] The autophagy inhibitor CQ was used as a positive control. […] Representative autophagic vacuoles (AVs) are shown. […] (FIG. 22) The numbers of AVs for each optical section (9 m^2) are quantified (n=8). (FIG. 23) HCT116 cells expressing GFP-LC3 and RFP-Lamp1 were treated with Tc for 6 h and fixed to observe colocalization of GFP-LC3 and RFP-Lamp1 with confocal microscopy. […] The colocalization coefficients of images were quantified by the Ziess LSM 710 Software and are shown in the right panel. […] Cells were harvested for immunoblotting using antibodies against LC3, ATG4B or ACTB, and autophagy flux was quantified in untreated cells and cells treated with CQ based on changes in LC3-II. […]
Data set [11] deals with HCT116 cells. Particulars: Tc 40 μM, versus untreated cells.
Description: HCT116 cells treated with T2 (40 μM), CQ (20 μM) for 8 h were rinsed with PBS once and fixed in 2% glutaraldehyde at room temperature for 30 min. The cells were harvested to postfix with 1% osmium tetroxide and stained with 2% uranyl acetate (Agar Scientific) at room temperature for 1 h. The cell pellets were embedded to obtain 80 nm sections with a diamond knife. The sections were stained with 2% uranyl acetate and 0.3% lead citrate (Agar Scientific) and imaged with a JEM1400 PLUS transmission electron microscope (JEOL).
The autophagy inhibitor CQ was used as a positive control. Bar: 20 μm. […] Representative autophagic vacuoles (AVs) are shown. Arrowhead: autophagosome. Bar: 200 nm. (FIG. 22) The numbers of AVs for each optical section (9 m^2) are quantified (n=8).
Data set [12] deals with HCT116 and H4 cells expressing GFP-LC3 and RFP-Lamp1. Conditions: Tc 6 h, confocal microscopy.
Description: Human colorectal cancer HCT116 cells, glioblastoma H4 cells and breast cancer MDA-MB-231 from the ATCC were cultured in Dulbecco's modified Eagle's medium (DMEM) (Invitrogen, 12100-046) supplemented with 10% HyClone fetal bovine serum, penicillin (100 U/ml), and streptomycin (100 mg/ml). […] The treated cells were harvested to determine cell viability, apoptosis and immunoblotting.
The treated cells were fixed to observe the GFP-LC3 puncta via fluorescence microscopy.
(FIG. 23) HCT116 cells expressing GFP-LC3 and RFP-Lamp1 were treated with Tc for 6 h and fixed to observe colocalization of GFP-LC3 and RFP-Lamp1 with confocal microscopy. GFP-LC3 that had colocalized with or was surrounded by RFP-Lamp1 was identified as fusion between autophagosomes and lysosomes. The colocalization coefficients of images were quantified by the Ziess LSM 710 Software and are shown in the right panel. Bar: 20 m.
For data set [13], the system named is H4, HCT116 or MDA-MB-231 cells.
Description: The cells were briefly rinsed in PBS (Biological Industries, 02-023-1) and lysed with RIPA buffer (1% NP40 [MDBio, 101-9016-45-9], 50 mM Tris HCl, pH 7.5, 150 mM NaCl, 0.25% sodium deoxycholate [Sigma-Aldrich, D6750], 1% sodium dodecyl sulfate [SDS; Calbiochem, 428015], and protease inhibitor cocktail [Roche, 11873580001]). The cell lysates were used for immunoblotting with antibodies against the primary antibodies against ATG4B (A2981), LC3 (L7543), and ACTB (β-actin, A5441) (all purchased from Sigma-Aldrich). The differential accumulations of LC3 in cells with and without CQ were used to quantitate the autophagic flux (Mizushima et al., 2010). […] The proteins were probed with an HRP-labeled secondary antibody (Santa Cruz, sc-2004 or sc-2005) and detected with an ECL reagent. The membrane was scanned and analyzed for the protein expression level with the ChemiDoc XRS Imaging System (Bio-Rad).
The autophagy inhibitor CQ was used as a positive control. […] (FIG. 24) HCT16 cells were transfected with siRNA (5 nM) for 66 h and then treated with CQ (20 μM) for 2 h. Cells were harvested for immunoblotting using antibodies against LC3, ATG4B or ACTB, and autophagy flux was quantified in untreated cells and cells treated with CQ based on changes in LC3-II. […] (FIG. 26) The autophagic flux was quantified as described in FIG. 25.
Data set [14] relates to HCT116 and H4 cells. Conditions: Dox-treated cells, Tc 40 μM, JC-1.
Description: For the MMP analysis, the cells were treated with JC-1 (5,5,6,6-tetrachloro-1,1,3,3-tetraethyl-benzimidazolylcarbocyanine iodide, Invitrogen) at 37° C. for 20 min prior to harvesting.
Data set [15] concerns HCT116 spheroids. Conditions: 48 h.
Description: The cells (4000 cells/well) were seeded into an ultra-low attachment, 96-well plate (Costar®, USA) and grown overnight to form spheroid cells. […] The spheroid cells were stained with Calcein AM (1 μM) and Ethidium homodimer-1 (EthD-1, 2 μM) (LIVE/DEAD® Viability/Cytotoxicity Kit, ThermoFisher Scientific) for 30 minutes. The live (green) and dead (red) spheroid cells were imaged via fluorescence microscopy and quantitated using a Fluoroskan Ascent FL reader (Thermo Fisher Scientific) with excitation at 485 nm and emissions at 530 nm and 645 nm for calcein AM and EthD-1, respectively.
(FIG. 44) HCT116 cells were cultured in an ultra-low attachment dish for 24 h to form spheres. […] Scale bar: 400 μm. (FIG. 45) The relative sphere volume was quantified using DMSO-treated cells as the normalized control. (FIG. 46) HCT116 sphere-forming cells treated as (A) were lysed to measure ATP levels and assess cell viability. […] The viable and dead spheres were imaged with a LIVE/DEAD staining kit. The knockdown efficiency of ATG genes was verified by immunoblotting (left panel) (FIG. 48) The red fluorescence of the spheres in FIG. 47 was quantitated with a reader to assess the dead cell population (n=6).
Data set [16] relates to HCT116 xenograft tumors.
Description: Human colorectal cancer HCT116 cells (2×10^6) were mixed with Matrigel (1:1) and subcutaneously implanted into six-week old immunodeficient mice (nu/nu, female). […] The tumor size in each mouse was measured every 3 to 4 days with vernier calipers, and the tumor volumes were calculated using the formula (larger diameter)×(smaller diameter)2×7π/6. Tumors were further cut from euthanized mice and embedded in paraffin. […] The protein levels in the tumor sections were determined using the UltraVision™ Quanto Detection System HRP DAB (Thermo Scientific) and observed under microscopy.
The tumor volume (circle) in each mouse was measured every 3 to 4 days (5 per group). The p values were determined with an ANOVA. […] The quantified results were obtained from at least 1500 cells and are shown in the right panel. p>0.05; *p<0.05; **p<0.01; ***p<0.001.
For data set [17], the target named is T1, ATG4B. Description: biochemical.
Description: as §2, §3, §4
The target of data set [18] is T2, ATG4A. Nature of the data set: biochemical.
Description: as §2, §3, §4
The mark [19] stands for this setting: tioconazole-treated mice, immunohistochemistry.

T2 sequence (Q8WYN0 whole entry): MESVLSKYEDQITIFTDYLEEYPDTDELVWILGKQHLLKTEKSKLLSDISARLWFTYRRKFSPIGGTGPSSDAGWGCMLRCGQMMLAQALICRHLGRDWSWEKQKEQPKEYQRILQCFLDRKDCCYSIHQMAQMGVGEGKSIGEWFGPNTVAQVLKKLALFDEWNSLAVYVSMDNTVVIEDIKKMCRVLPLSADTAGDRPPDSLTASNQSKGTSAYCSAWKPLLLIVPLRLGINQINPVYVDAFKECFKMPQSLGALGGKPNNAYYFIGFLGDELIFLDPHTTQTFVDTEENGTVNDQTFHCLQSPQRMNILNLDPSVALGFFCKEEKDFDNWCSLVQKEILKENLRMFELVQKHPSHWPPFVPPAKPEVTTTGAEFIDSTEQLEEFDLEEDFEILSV

As to `COc1cccc2c1C(=O)c1c(O)c3c(c(O)c1C2=O)C[C@@](O)(C(=O)CO)C[C@@H]3O[C@H]1C[C@H](N)[C@H](O)[C@H](C)O1` [Dox, Doxorubicin], the “caspase-3/7 activity and cleavage of caspase-3 and PARP” value in data set [1] is “significantly elevated”.
Consider `Clc1ccc(COC(Cn2ccnc2)c2ccc(Cl)cc2Cl)c(Cl)c1` (stereo not shown) [miconazole], for which the “inhibitory effect on ATG4B compared with tioconazole” value in data set [2] was “failed to exhibit as good inhibitory effect on ATG4B as tioconazole”. Besides, the “cell death in combination with Dox (subG1 proportion)” value in data set [3] is “less potently synergized with Dox”.
With `Clc1ccc(C(Cn2ccnc2)OCc2ccsc2Cl)c(Cl)c1` (stereo not shown) [tioconazole], the “inhibition in the yeast cell-based assay” value in data set [4] is “strong inhibition”. In [5] (cancer cell lines, tioconazole 40 μM combined with starvation or chemotherapeutic drugs), the “cytotoxic effects of starvation and chemotherapy” value was “enhanced the cytotoxic effects of starvation and chemotherapy”. In addition, the cell viability result in data set [5] (cancer cell lines, tioconazole 40 μM, cellular ATP levels or impedance) is “significantly reduced the cell viability”. Besides, the “caspase-3/7 activity and cleavage of caspase-3 and PARP” value in data set [1] is given as “significantly elevated”. In addition, in data set [6], the “cleavage of GABARAPL2-PLA2 by ATG4B (immunoblotting)” value is on record as “blocked the cleavage”. The “cleavage of GABARAPL2-PLA2 by ATG4A (immunoblotting)” value in data set [7] is on record as “blocked the cleavage”. Besides, the “luciferase activity in ATG4 reporter cells” value in data set [8] was “increased the luciferase activity”. For the same compound, the “cleavage of chimera luciferase in reporter cells” value in [8] (immunoblotting) is “attenuated the cleavage of chimera luciferase”. Also, in data set [9] (Tc 8 h), the “fluorescence from formation of the ATG4B and LC3 complex (BiFC)” value is on record as “reduced the fluorescence”. In data set [9], the “GFP fluorescence (counter assay)” value is reported as “did not affect GFP fluorescence”. Also, the GFP-LC3-II puncta result in [10] is “accumulation of GFP-LC3-II puncta”. For the same compound, the “number of autophagosomes (TEM)” value in [11] was “increased”. The “co-localization of LC3 and LAMP1” value in [12] is “decreased the co-localization of LC3 and LAMP1”. Moreover, the “autophagic flux (LC3-II accumulation with and without CQ)” value in data set [13] (Tc 6 h, with or without CQ 20 μM) is on record as “significantly attenuated autophagic flux”. In [13] (cancer cells, starvation or CPT/Dox 24 h, immunoblotting), the “LC3-II turnover and SQSTM1 degradation triggered by starvation and chemotherapeutic drugs” value was “blocked LC3-II turnover and SQSTM1 degradation”. In addition, the “mitochondrial membrane potential (MMP)” value in data set [14] is reported as “reduction of mitochondrial membrane potential”. The “size of tumor spheroids” value in [15] (HCT116 spheroids, Tc 40 μM) was “significantly decreased the size of tumor spheroids”. Moreover, the “cytotoxicity of Dox in spheroids (ATP levels, number of dead cells)” value in [15] (Tc 40 μM with Dox 1 μM) is listed as “enhanced the cytotoxicity of Dox”. Moreover, the “Dox-induced cell death in spheres with scramble shRNA and shRNA against ATG4B” value in [15] (Tc 40 μM, Dox 1 μM, LIVE/DEAD staining) was “enhanced Dox-induced cell death”. In [16] (Tc 60 mg/kg intraperitoneal every other day, day 21), the xenograft tumor weight result is “reduced the xenograft tumor weight”. For the same compound, in data set [16] (Tc 60 mg/kg with Dox 1 mg/kg intraperitoneal every other day), the “sensitivity of xenograft tumors to Dox” value is listed as “sensitized xenograft tumors to Dox”. In data set [16] (setting [19]), the “levels of cleaved caspase-3 in tumor tissues” value is “significantly increased”. The “number of LC3 puncta in tumor tissues” value in data set [16] (setting [19]) was “significantly increased”. The IC50 in [17] turned out to be 1800 ± 160 nM; in data set [18], 1300 ± 180 nM. Besides, in [3], the “cell death in combination with Dox (subG1 proportion)” value is “synergistically increased cell death”.
Turning to z-VAD-fmk, in data set [5] (zVAD-FMK 50 μM pretreatment, Tc 40 μM, Dox 1 μM 24 h), the “apoptotic effects of tioconazole and Dox after pretreatment (cell viability)” value was “rescued the apoptotic effects”. Also, the “caspase-3 activation after pretreatment” value in data set [1] (zVAD-FMK 50 μM, cells treated with tioconazole and Dox) is listed as “blocked caspase-3 activation”.

What is called IC50 is the point on the concentration scale where inhibition reaches its midpoint.
